Experimental data taken from US20260240740A1, “MULTI-PHOTOPROTECTIVE COMPOUNDS AND USES THEREOF” (SKINOSIVE, priority 2022, published 2026).
Where “and” joins values, the source holds several entries; their conditions need not be identical. Equal values may be shown once.

Key:
[1] = Solubility in sunscreen solvents; assay type: physicochemical; conditions: 50° C.
Protocol: Compound #2 (OOD) and a sunscreen solvent were weighed in a Becher. The Becher was placed on a magnetic stir plate, heated up to 50° C., and the solution was vigorously mixed with a bar magnet.
Compound #4 (OHD) and a sunscreen solvent were weighed in a Becher. The Becher was placed on a magnetic stir plate, heated up to 50° C., and the solution was vigorously mixed with a bar magnet.
Compound #5 (BOO) and a sunscreen solvent were weighed in a Becher. The Becher was placed on a magnetic stir plate, heated up to 50° C., and the solution was vigorously mixed with a bar magnet.
Compound #6 (BOO-OM) and a sunscreen solvent were weighed in a Becher. The Becher was placed on a magnetic stir plate, heated up to 50° C., and the solution was vigorously mixed with a bar magnet.

[2] = UV absorbance profile: λmax in solvents, FLUOstar plate reader; assay type: physicochemical; conditions: for λmax: 125 μM; for λmax double peak, first peak / λmax double peak, second peak: 50 μM; for λmax absorbance shift in UVB versus the mix of BEMT-OCR: same molar concentration, same shift in Dottisol
Protocol: Compound #2 (OOD), Univul A plus (DHHB)+Octocrylene (OCR) were dissolved in a solvent at the same concentration (125 μM).
Compound #4 (OHD), Univul A plus (DHHB)+Octocrylene (OCR) were dissolved in a solvent at the same concentration (125 μM).
Compound #5 (BOO) and BEMT (6,6′-(6-(4-methoxyphenyl)-1,3,5-triazine-2,4-diyl)bis(3-((2-ethylhexyl)oxy)phenol)=Tinosorb S)+Octocrylene (OCR) were dissolved in a solvent at the same concentration (50 μM).
UV Absorbance Profil of Compound #6 (BOO-OM) Compound #6 (BOO-OM) and BEMT (6,6′-(6-(4-methoxyphenyl)-1,3,5-triazine-2,4-diyl)bis(3-((2-ethylhexyl)oxy)phenol)=Tinosorb S)+Octocrylene (OCR) were dissolved in a solvent at the same concentration (50 μM).

[3] = Photostability after UV irradiation, absorbance spectra; assay type: physicochemical
Protocol: (§1) Compound #2 (OOD), Univul A plus (DHHB), Octocrylene (OCR), and Univul A plus (DHHB)+Octocrylene (OCR) were dissolved in Ethanol at 1 mM and were irradiated at 2000 and 4000 J/dm2 for 1 h and 2 h in a 24-well plate, respectively, in 2 replicates (1 replicate for HPLC and 1 replicate for absorbance spectra).
as §1, with “#4 (OHD),” for “#2 (OOD),”
(§2) Compound #5 (BOO), Tinosorb S (BEMT), and Octocrylene (OCR) were dissolved in Dubdis at 2 mM and were irradiated at 4000 J/dm2 for 2 h in a 24-well plate, respectively, in 2 replicates (1 replicate for HPLC and 1 replicate for absorbance spectra).

[4] = Photostability after UV irradiation, HPLC; assay type: physicochemical
Protocol: as §1
as §1, with “#4 (OHD),” for “#2 (OOD),”
as §2

pig skin = test: UV protection ex vivo on pig skin by autofluorescence quenching; conditions: for UVB protection after ethanol wash compared to the initial protection before washing: pig skin
Protocol: UV Protection Performance of Compound #2 (OOD) UVB and UVA protections have been assessed ex vivo on pig skin by measuring the autofluorescence quenching. OOD (Compound #2), the mix of DHHB+OCR were solubilized at the same molar concentration in Dottisol (isosorbide dimethyl ether), covered 6.25 cm2 skin square and incubated 20 min or 2 hours at room temperatures, and then 7 mm skin punches were cut and placed in a black 96-well plate. UVB and UVA protections were measured after respectively an excitation at 300 nm and 355 nm and a fluorescence emission was read at 460 nm. DMSO was added on the pig skin before the reading of the residual fluorescence.
UVB and UVA protections have been assessed ex vivo on pig skin by measuring the autofluorescence quenching. BOO (Compound #5) and the mix of BEMT+OCR were solubilized at the same molar concentration in Dottisol (isosorbide dimethyl ether), covered 6.25 cm^2 skin square and incubated 4 hours at 34° C., washed or not with 10 mL Ethanol for 5 min, and then 7 mm diameter skin punches were cut and placed in a black 96-well plate. UVB and UVA protections were measured after respectively an excitation at 300 nm and 355 nm and a fluorescence emission was read at 460 nm.
UVB protection has been assessed ex vivo on pig skin by measuring the autofluorescence quenching. BOO (Compound #5), BOO-OM (Compound #6) and the mix of BEMT+OCR were solubilized at the same molar concentration in DMDA (dimethyl capramide), covered 6.25 cm2 skin square and incubated 2 hours at 34° C., washed or not with 10 mL Ethanol for 5 min, and then 7 mm diameter skin punches were cut and placed in a black 96-well plate. UVB protection was measured after respectively an excitation at 300 nm and a fluorescence emission was read at 460 nm.

[5] = system: thiolated polylysine matrix; test: Bio adhesion on thiolated polylysine matrix (UV absorbance at 310 nm after ethanol washes); conditions: overnight incubation in ethanol/PBS (90%/10%), washed 10 times with ethanol
Protocol: (§3) Polylysine and Polylysine enriched in SH by thiolation of primary amines using Traut's reagent were used for coating 96-well microplates. UV filters (BOO and BOO-OM) were incubated overnight under orbital agitation on the different matrices (n=3 for each condition) (uncoated wells were used as negative controls), in an ethanol/PBS (90%/10%) solution. After incubation, each microplate well was thoroughly washed 10 times with ethanol, before measuring UV absorbance. Whole UV/Visible absorbance spectrum from 220 to 1000 nm were measured in the center of each microplate well. In addition, specific UV absorbance at 310 nm was measured by matrix scan over the whole the well as a 10×10 matrix.

[6] = system: polylysine matrix (non thiolated); test: Bio adhesion on polylysine matrix (non thiolated); conditions: overnight incubation in ethanol/PBS (90%/10%), washed 10 times with ethanol
Protocol: as §3

[7] = Cetiol HE (PEG-7 Glyceryl Cocoate)
[8] = pig skin autofluorescence after 2 h of incubation, Dottisol, Mean +/− SD, N = 3
[9] = pig skin autofluorescence after 2 h of incubation, DMDA (dimethyl capramide), Mean +/− SD, N = 3
[10] = pig skin autofluorescence after 2 h of incubation, DMDA, 10 mL Ethanol 5 min, Mean +/− SD, N = 3
[11] = pig skin autofluorescence after 4 h of incubation, Dottisol, 10 mL Ethanol 5 min, Mean +/− SD, N = 3
[12] = pig skin autofluorescence after 4 h of incubation, Dottisol, Mean +/− SD, N = 3

CCN(CC)c1ccc(C(=O)c2ccccc2C(=O)NCCCCCCCCOC(=O)C(C#N)=C(c2ccccc2)c2ccccc2)c(O)c1 [Compound #2, 8-[[2-[4-(diethylamino)-2-hydroxy-benzoyl]benzoyl]amino]octyl 2-cyano-3,3-diphenyl-prop-2-enoate]
soluble at ratio ([1]; Cetiol B (Dibutyl Adipate)): 1/1 | soluble at ratio [1, 7]: ⅕ | soluble at ratio ([1]; Dubdis (Diisopropyl sebacate)): 1/1 | λmax ([2]; Cetiol B (Dibutyl Adipate)): 355 nm | λmax [2, 7]: 355 nm | λmax ([2]; DMSO): 356 nm | λmax ([2]; Dubdis (diisopropyl sebacate), listed as OOD): 355 nm and 356 nm | λmax ([2]; Ethanol): 356 nm | Absorbance peak, Without UV irradiation ([3]; Ethanol, 1 mM): 357 nm | Absorbance peak, Irradiation 2000 J/dm2 ([3]; Ethanol, 1 mM, 1 h): 357 nm | Absorbance peak, Irradiation 4000 J/dm2 ([3]; Ethanol, 1 mM, 2 h): 357 nm | λmax after irradiation ([3]; Ethanol, 2000 or 4000 J/dm2 for 1 or 2 hours): 357 nm | Effect of irradiation on UV absorbance profile ([3]; Ethanol, UVB and UVA range, 2000 or 4000 J/dm2 for 1 or 2 hours): did not modify | degradation observed by HPLC after irradiation ([4]; Ethanol): No degradation | purity by HPLC after irradiation ([4]; Ethanol): 98.80% | purity by HPLC, non-irradiated ([4]; Ethanol): 99.17% | UVA and UVB protections of the pig skin compared to the mix OCR+DHHB (pig skin; 2 h incubation, Dottisol): similar | UVA Fluorescence (Ex355/Em460) (pig skin; [8]): 2881 +/− 617 | UVB Fluorescence (Ex300/Em460) (pig skin; [8]): 15248 +/− 3227

CCCCC(CC)COc1ccc(-c2nc(-c3ccc(OC)cc3)nc(-c3ccc(OCC(CC)CCCC)cc3OCCCCCCCCNC(=O)C(C#N)=C(c3ccccc3)c3ccccc3)n2)c(O)c1 (stereo not drawn) [Compound #5, 2-cyano-N-(8-(5-((2-ethylhexyl)oxy)-2-(4-(4-((2-ethylhexyl)oxy)-2-hydroxyphenyl)-6-(4-methoxyphenyl)-1,3,5-triazin-2-yl)phenoxy)octyl)-3,3-diphenylacrylamide]
bio adhesion, UV absorbance at 310 nm [5]: did not show a bio adhesion | λmax double peak, first peak ([2]; Dottisol): 301 nm | λmax double peak, second peak ([2]; Dottisol): 324 nm | λmax double peak, first peak ([2]; Dubdis): 301 nm | λmax double peak, second peak ([2]; Dubdis): 323 nm | λmax absorbance shift in UVB versus the mix of BEMT-OCR ([2]; Dubdis): 10 nm | Absorbance peak, Without UV irradiation, first or only peak ([3]; Dubdis, 2 mM): 301 nm | Absorbance peak, Without UV irradiation, second peak ([3]; Dubdis, 2 mM): 323 nm | Absorbance peak, Irradiation 4000 J/dm2, first or only peak ([3]; Dubdis, 2 mM, 2 h): 301 nm | Absorbance peak, Irradiation 4000 J/dm2, second peak ([3]; Dubdis, 2 mM, 2 h): 324 nm | Absorbance peak, Irradiation 4000 J/dm2, second peak ([3]; Dubdis, 2 mM, 2 h, listed as BOO): 323 nm | Effect of irradiation on UV absorbance profiles and λmax ([3]; Dubdis, UVB and UVA range, 4000 J/dm2 for 2 hours): did not modify | degradation observed by HPLC after irradiation ([4]; Dubdis): No degradation | purity by HPLC after irradiation ([4]; Dubdis): 98.13% | purity by HPLC, non-irradiated ([4]; Dubdis): 98.88% | UVA and UVB protections of the pig skin compared to the mix OCR+BEMT (pig skin; 4 h incubation, Dottisol): similar | UVB Fluorescence (Ex300/Em460) No Wash (pig skin; [9]): 42968 +/− 3131 | UVB Fluorescence (Ex300/Em460) EtOH Wash (pig skin; [10]): 152417 +/− 17275 | UVA Fluorescence (Ex355/Em460) EtOH Wash (pig skin; [11]): 217235 +/− 4204 | UVB Fluorescence (Ex300/Em460) EtOH Wash (pig skin; [11]): 205205 +/− 3116 | UVA Fluorescence (Ex355/Em460) No Wash (pig skin; [12]): 49672 +/− 9882 | UVB Fluorescence (Ex300/Em460) No Wash (pig skin; [12]): 49009 +/− 9100 | UVB protection after ethanol wash compared to the initial protection before washing (pig skin; 2 h incubation, DMDA): decreased three times

CCCCC(CC)COc1ccc(-c2nc(-c3ccc(OC)cc3)nc(-c3ccc(OCC(CC)CCCC)cc3OCCCCCCCCN3C(=O)C=CC3=O)n2)c(OCCCCCCCCNC(=O)C(C#N)=C(c2ccccc2)c2ccccc2)c1 (stereo not drawn) [Compound #6, 2-cyano-N-(8-(2-(4-(2-((8-(2,5-dioxo-2,5-dihydro-1H-pyrrol-1-yl)octyl)oxy)-4-((2-ethylhexyl)oxy)phenyl)-6-(4-methoxyphenyl)-1,3,5-triazin-2-yl)-5-((2-ethylhexyl)oxy)phenoxy)octyl)-3,3-diphenylacrylamide]
soluble at ratio ([1]; Dimethyl capramide (Spectrasolv DMDA)): 1/10 | soluble at ratio ([1]; Dottisol (dimethyl isosorbide)): ½ | soluble at ratio ([1]; Dubdis (Diisopropyl sebacate)): ½ | bio adhesion, UV absorbance at 310 nm [5]: showed a bio adhesion | bioadhesion [6]: no bioadhesion | λmax double peak, first peak ([2]; Dottisol): 290 nm | λmax double peak, second peak ([2]; Dottisol): 307 nm | λmax double peak, first peak ([2]; Dubdis): 289 nm | λmax double peak, second peak ([2]; Dubdis): 309 nm | λmax absorbance shift in UVB versus the mix of BEMT-OCR ([2]; Dubdis): ≥ 20 nm | UVB protection of the pig skin compared to the mix OCR+BEMT (pig skin; 2 h incubation, DMDA): similar | bio adhesive (pig skin, ethanol wash) (pig skin; conclusion from UVB protection after ethanol wash): is bio adhesive | UVB Fluorescence (Ex300/Em460) No Wash (pig skin; [9]): 40608 +/− 3466 | UVB Fluorescence (Ex300/Em460) EtOH Wash (pig skin; [10]): 108875 +/− 4401 | UVB protection after ethanol wash compared to the initial protection before washing (pig skin; 2 h incubation, DMDA): reduced twice
